Experimental findings from patent publication US7632952B2, “Benzothiazoles and the use thereof as medicaments” (Aventis Pharma S.A., priority 2004, dated 2009) are described below.

Where a name gives a salt, the structure may show the parent alone. Read-outs that look alike come from different tables or passages of the source.

One assay deals with CDK4/cyclin D1 (Homo sapiens, UniProt P11802). Briefly: CDK4/cyclin D1 Flashplate test in 96-well format. It counts as biochemical. The procedure: 2. CDK4/cyclin D1 Protocol:
Purification of the CDK4-HA/cyclin D1-(His)6 Complex by IMAC (Immobilized Metal Affinity Chromatography):
Two recombinant baculoviruses bearing the human sequences coding, respectively, for CDK4-HA (C-terminal fusion with the hemaglutinin tag) and for cyclin D1-(His)6 are used to coinfect insect Sf9 cells. Sixty hours after the start of the coinfection, the cells are harvested by centrifugation and then frozen at −20° C. until the time of use.
CDK4/cyclin D1 Flashplate Test in 96-Well Format
A test in 96-well “Flashplate” plates coated with streptavidin is used to evaluate the inhibition of the CDK4/cyclin D1 kinase complex by the products of the invention. To perform this test, the biotinylated peptide substrate, a fragment of the pRb protein (biotinyl-[…]-amide) is dissolved at a concentration of 2 mM in kinase buffer (HEPES/NaOH 50 mM, NaCl 1 mM, MgCl2 5 mM, pH 7.5) in order to constitute a stock solution stored at −20° C. in the form of 110 μl aliquots. On the day of the experiment, an aliquot of this solution is thawed and diluted in kinase buffer containing 1 mM of dithiothreitol, and added to the buffer extemporaneously, in order to obtain a final peptide concentration of 2.571 μM. 70 μl of this solution are added to each well of the Flashplate in order to obtain a final substrate concentration of 1.8 μM during the enzymatic reaction, performed in a final volume of the reaction medium of 100 μl (cf. below). Intermediate dilutions of inhibitors (products of the invention) at various concentrations are prepared in DMSO from stock solutions at 10 mM in separate tubes. 1000 μM, 333.3 μM, 111.1 μM, 37.03 μM, 12.35 μM, 4.11 μM and 1.37 μM dilutions are thus prepared. 1 μl of each of these solutions (or 1 μl of DMSO for the controls) is then transferred into the wells of the test plate. Into each well are then added 19 μl of a solution of a mixture of adenosine triphosphate (ATP) and of ATPy^33P in the kinase buffer at a concentration of 5.26 μM of ATP total and 78.9 μCi/ml of ^33P. The enzymatic reaction is triggered by addition of 10 μl per well of a solution of CDK4/cyclin D1 at 250 nM in the kinase buffer containing 1 mM of dithiothreitol (or 10 μl of kinase buffer containing 1 mM of dithiothreitol for the reaction blanks).
After addition of all the reagents, the test plate is incubated at 30° C. with orbital stirring at 650 rpm. After the incubation, the plate is washed three times with 300 μl per well of PBS (phosphate-buffered saline, pH=7.4, without calcium or magnesium, reference 10010-015, Gibco BRL). The incorporation of ^33P into the substrate peptide is quantified by scintillation counting using a Packard Topcount.NXT machine. The inhibitory activity of the products of the invention is evaluated by measuring the inhibitory concentration that allows a 50% reduction in the enzymatic activity (IC50).

In another assay the target is CDK2/cyclin E (Homo sapiens, UniProt P24941). Briefly: CDK2/cyclin E Flashplate test in 96-well format. It counts as biochemical. As for the experimental part:
1. Protocol CDK2/cyclin E:
Purification of the CDK2/cyclin E-(His)6 Complex by IMAC (Immobilized Metal Affinity Chromatography):
Two recombinant baculoviruses bearing the human sequences coding, respectively, for CDK2 and cyclin E (the latter comprising a C-terminal hexahistidine tag) are used to coinfect insect Sf21 cells. Two to three days after the start of coinfection, the cells are harvested by centrifugation and then stored at −40° C. until the time of use. After thawing and mechanical lysis of the cells, the complex present in the lysis supernatant is purified by affinity chromatography on nickel (IMAC), and stored at −80° C.
CDK2/cyclin E Flashplate Test in 96-Well Format
A format in 96-well plates coated with streptavidin is used to test the activity of the compounds on the kinase activity of CDK2/cyclin E.
To perform this test, the biotinylated peptide substrate, a fragment of the pRb protein (biotinyl-[…]-OH) is dissolved at a concentration of 1 mM in kinase buffer (HEPES/NaOH 50 mM, NaCl 1 mM, MgCl2 5 mM, pH 7.5) in order to constitute a stock solution stored at −20° C. in the form of 110 μl aliquots. On the day of the experiment, an aliquot of this solution is thawed and diluted in kinase buffer containing 1 mM of dithiothreitol, and added to the buffer extemporaneously, in order to obtain a concentration of 14.3 μM. 70 μl of this solution are added to each well of the Flashplate in order to obtain a final substrate concentration of 10 μM during the enzymatic reaction, performed in a final volume of the reaction medium of 100 μl (cf. below).
Intermediate dilutions of inhibitors (products of the invention) at various concentrations are prepared in DMSO from stock solutions at 10 mM in separate tubes. 1000 μM, 333.3 μM, 111.1 μM, 37.03 μM, 12.35 μM, 4.11 μM and 1.37 μM dilutions are thus prepared. 1 μl of each of these solutions (or 1 μl of DMSO for the controls) is transferred into the wells of the test plate.
Into each well are then added 19 μl of a solution of a mixture of adenosine triphosphate (ATP) and of ATPy^33P in the kinase buffer at a concentration of 5.26 μM of ATP total and 52.6 μCi/ml of ^33P. The enzymatic reaction is triggered by addition of 10 μl per well of a solution of CDK2/cyclin E at 200 nM in the kinase buffer containing 1 mM of dithiothreitol (or 10 μl of kinase buffer containing 1 mM of dithiothreitol for the reaction blanks).
After addition of all the reagents, the plate is incubated at 30° C. with orbital stirring at 650 rpm.
When the incubation is complete, the plate is washed three times with 300 μl per well of PBS (phosphate-buffered saline, pH=7.4, without calcium or magnesium, reference 10010-015, Gibco BRL). The incorporation of ^33P into the peptide is quantified by scintillation counting using a Packard Topcount.NXT machine. The inhibitory activity of the products of the invention is evaluated by measuring the inhibitory concentration that allows a 50% reduction in the enzymatic activity (IC50).

Another assay deals with HeLa. Briefly: HeLa proliferation. It counts as cell-based. The note with it: Homo sapiens, read-out: HeLa proliferation EC50 (nM) DG.

Chain of CDK4/cyclin D1 (P11802 whole entry): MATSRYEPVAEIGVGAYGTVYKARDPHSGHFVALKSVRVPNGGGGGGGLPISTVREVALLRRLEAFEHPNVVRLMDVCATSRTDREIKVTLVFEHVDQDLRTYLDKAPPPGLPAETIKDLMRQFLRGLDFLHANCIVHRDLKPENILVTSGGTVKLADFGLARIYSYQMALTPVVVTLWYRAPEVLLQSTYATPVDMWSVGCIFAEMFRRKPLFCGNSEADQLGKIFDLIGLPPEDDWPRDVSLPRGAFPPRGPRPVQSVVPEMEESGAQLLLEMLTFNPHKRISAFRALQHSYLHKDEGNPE
Chain of CDK4/cyclin D1 (P24385 whole entry partner): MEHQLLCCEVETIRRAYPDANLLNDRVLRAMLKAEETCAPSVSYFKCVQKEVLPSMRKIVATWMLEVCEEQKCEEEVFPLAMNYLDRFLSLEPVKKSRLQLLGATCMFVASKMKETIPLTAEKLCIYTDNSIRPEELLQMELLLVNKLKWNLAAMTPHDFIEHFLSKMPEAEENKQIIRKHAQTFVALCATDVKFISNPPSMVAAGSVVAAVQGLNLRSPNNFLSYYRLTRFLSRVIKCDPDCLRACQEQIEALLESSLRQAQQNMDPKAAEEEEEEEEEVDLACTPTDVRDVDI

In the case of `CC(C)N(CCNc1ccc(S(=O)(=O)Oc2ccc3nc(NC(=O)CCCCCCCN)sc3c2)cc1)C(C)C` [Example 40, 4-(2-diisopropylaminoethylamino)benzenesulfonic acid 2-(8-aminooctanoylamino)benzothiazol-6-yl ester], the IC50 (in general, the concentration at which inhibition is half-maximal) on CDK4/cyclin D1 was determined as 0.253 µM; at CDK2/cyclin E (read-out: CDK2 IC50) it was 0.209 µM. For the same compound, the EC50 in the assay on HeLa stood at 7550 nM.
Turning to `O=C(Nc1nc2ccc(OS(=O)(=O)c3ccc(F)cc3)cc2s1)C1CC1` [Example 7, 4-fluorobenzenesulfonic acid 2-(cyclopropane-carbonylamino)benzothiazol-6-yl ester], the IC50 at CDK4/cyclin D1 is more than 10 µM; at CDK2/cyclin E (read-out: CDK2 IC50), 0.123 µM. In addition, in the assay with HeLa, the EC50 stood at 1580 nM.
For `CNCC(=O)Nc1nc2ccc(OS(=O)(=O)c3cccs3)cc2s1` [Example 33c, Thiophene-2-sulfonic acid 2-(2-methylamino-acetylamino)benzothiazol-6-yl ester; compound with trifluoroacetic acid], the IC50 was more than 10 µM against CDK4/cyclin D1 and 8.27 µM on CDK2/cyclin E (read-out: CDK2 IC50).
As to `CCNCCNc1ccc(S(=O)(=O)Oc2ccc3nc(NC(=O)CC4CCNCC4)sc3c2)cc1` [Example 19b, 4-(2-Ethylaminoethyl-amino)benzenesulfonic acid 2-(2-piperid-4-ylacetyl-amino)benzothiazol-6-yl ester hydrochloride], the IC50 against CDK4/cyclin D1 came out at 0.732 µM; at CDK2/cyclin E (read-out: CDK2 IC50) it was 5.47 µM.
For `NCC(=O)Nc1nc2ccc(OS(=O)(=O)c3cccs3)cc2s1` [Example 33b, Thiophene-2-sulfonic acid 2-(2-amino-acetylamino)benzothiazol-6-yl ester; compound with trifluoroacetic acid], the IC50 on CDK4/cyclin D1 is more than 10 µM; at CDK2/cyclin E (read-out: CDK2 IC50), 6.34 µM.
The matching figures for `NCCC(=O)Nc1nc2ccc(OS(=O)(=O)c3cccs3)cc2s1` [Example 33d, Thiophene-2-sulfonic acid 2-(3-amino-propionylamino)benzothiazol-6-yl ester; compound with trifluoroacetic acid]: 8.27 µM and 2.95 µM.
`CC(C)N(CCNc1ccc(S(=O)(=O)Oc2ccc3nc(NC(=O)CC4CCNCC4)sc3c2)cc1)C(C)C` [Example 42, 4-(2-diisopropylaminoethylamino)benzenesulfonic acid 2-(2-piperid-4-ylacetylamino)benzothiazol-6-yl ester]: the concentration for half-maximal inhibition (IC50) against CDK4/cyclin D1 was 0.202 µM; on CDK2/cyclin E (read-out: CDK2 IC50), 1.14 µM.
Consider `NCCCCCCCC(=O)Nc1nc2ccc(OS(=O)(=O)c3ccc(NCCNCCO)cc3)cc2s1` [Example 22c, 4-[2-(2-hydroxyethyl-amino)ethylamino]benzene-sulfonic acid 2-(8-amino-octanoylamino)benzo-thiazol-6-yl ester hydro-chloride], for which the IC50 on CDK4/cyclin D1 stood at 1.57 µM; on CDK2/cyclin E (read-out: CDK2 IC50), 1.1 µM.
In the same order, the values of `CC(C)N(CCNc1ccc(S(=O)(=O)Oc2ccc3nc(NC(=O)C4CNC4)sc3c2)cc1)C(C)C` [Example 39, 4-(2-diisopropylaminoethylamino)benzenesulfonic acid 2-[(azetidine-3-carbonyl)amino]benzothiazol-6-yl ester] are 2.33 µM and 3.06 µM.
With `CC(C)NCCNc1ccc(S(=O)(=O)Oc2ccc3nc(NC(=O)CC4CCNCC4)sc3c2)cc1` [Example 18, 4-(2-isopropylaminoethylamino)benzenesulfonic acid 2-(2-piperid-4-ylacetylamino)benzothiazol-6-yl ester hydrochloride], the values for the IC50 against CDK4/cyclin D1 and on CDK2/cyclin E (read-out: CDK2 IC50) were 0.48 µM and 2.68 µM, respectively.
In turn, `CC1(C)CC(Nc2ccc(S(=O)(=O)Oc3ccc4nc(NC(=O)C5CC5)sc4c3)cc2)CC(C)(C)N1[O]` [Example 87, 4-(1-oxyl-2,2,6,6-tetramethylpiperidin-4-ylamino)-benzenesulfonic acid 2-(cyclopropanecarbonylamino)benzothiazol-6-yl ester] came in with an IC50 against CDK2/cyclin E of 0.809 µM.
In the case of `O=C(CC1CCNCC1)Nc1nc2ccc(OS(=O)(=O)c3ccc(NCCNCCO)cc3)cc2s1` [Example 19c, 4-[2-(2-Hydroxyethyl-amino)ethylamino]benzene-sulfonic acid 2-(2-piperid-4-ylacetylamino)benzo-thiazol-6-yl ester hydro-chloride], the IC50 was 1.22 µM at CDK4/cyclin D1 and 5.78 µM at CDK2/cyclin E (read-out: CDK2 IC50).
For the compound `NCCCCCCCC(=O)Nc1nc2ccc(OS(=O)(=O)c3cccs3)cc2s1` [Example 33f, Thiophene-2-sulfonic acid 2-(8-amino-octanoylamino)benzothiazol-6-yl ester; compound with trifluoroacetic acid], the IC50 against CDK4/cyclin D1 amounted to 7.1 µM; on CDK2/cyclin E (read-out: CDK2 IC50) it was 1.84 µM.
In the case of `CCNCCNc1ccc(S(=O)(=O)Oc2ccc3nc(NC(=O)CCCCCCCN)sc3c2)cc1` [Example 22b, 4-(2-ethylaminoethyl-amino)benzene sulfonic acid 2-(8-aminooctanoyl-amino)benzothiazol-6-yl ester], the IC50 came to 0.783 µM against CDK4/cyclin D1 and 0.547 µM on CDK2/cyclin E (read-out: CDK2 IC50).
For `CC(C)(O)CNc1ccc(S(=O)(=O)Oc2ccc3nc(NC(=O)C4CCNCC4)sc3c2)cc1` [Example 5, 4-(2-hydroxy-2-methylpropylamino)benzene-sulfonic acid 2-[(piperidine-4-carbonyl)amino]benzothiazol-6-yl ester], the IC50 on CDK4/cyclin D1 is 3.97 µM; at CDK2/cyclin E (read-out: CDK2 IC50), 0.995 µM.
Consider `CC(C)(O)CNc1ccc(S(=O)(=O)Oc2ccc3nc(NC(=O)CCC4CCNCC4)sc3c2)cc1` [Example 84, 4-(2-hydroxy-2-methylpropylamino)benzene-sulfonic acid 2-(3-piperidin-4-ylpropionylamino)benzothiazol-6-yl ester hydrochloride], for which the IC50 worked out at 0.683 µM on CDK4/cyclin D1 and 0.22 µM at CDK2/cyclin E (read-out: CDK2 IC50).
In the case of `O=C(CC1CCNCC1)Nc1nc2ccc(OS(=O)(=O)c3ccc(NCCCn4ccnc4)cc3)cc2s1` [Example 19a, 4-(3-Imidazol-1-ylpropyl-amino)benzenesulfonic acid 2-(2-piperid-4-ylacetyl-amino)benzothiazol-6-yl ester hydrochloride], the IC50 was determined as 0.471 µM against CDK4/cyclin D1 and 2.72 µM on CDK2/cyclin E (read-out: CDK2 IC50).
